This note sets out measurements from ChEMBL document CHEMBL3751699, “Design, synthesis and evaluation of novel 7-aminoalkyl-substituted flavonoid derivatives with improved cholinesterase inhibitory activities” (Bioorg Med Chem, 2016).

Active and inactive are the calls of the source. No cut-off for these calls is given here. A value given as a limit tells only on which side of the number the result lay.

The target of series [1] is T1, Acetylcholinesterase (Electrophorus electricus, UniProt O42275). Description: Inhibition of electric eel AChE using ATC as substrate preincubated for 15 mins followed by substrate addition measured at 1 min intervals by Ellman method. For orientation: In Ellman's method for cholinesterases, released thiocholine reacts with DTNB.
T1 sequence (O42275 whole entry): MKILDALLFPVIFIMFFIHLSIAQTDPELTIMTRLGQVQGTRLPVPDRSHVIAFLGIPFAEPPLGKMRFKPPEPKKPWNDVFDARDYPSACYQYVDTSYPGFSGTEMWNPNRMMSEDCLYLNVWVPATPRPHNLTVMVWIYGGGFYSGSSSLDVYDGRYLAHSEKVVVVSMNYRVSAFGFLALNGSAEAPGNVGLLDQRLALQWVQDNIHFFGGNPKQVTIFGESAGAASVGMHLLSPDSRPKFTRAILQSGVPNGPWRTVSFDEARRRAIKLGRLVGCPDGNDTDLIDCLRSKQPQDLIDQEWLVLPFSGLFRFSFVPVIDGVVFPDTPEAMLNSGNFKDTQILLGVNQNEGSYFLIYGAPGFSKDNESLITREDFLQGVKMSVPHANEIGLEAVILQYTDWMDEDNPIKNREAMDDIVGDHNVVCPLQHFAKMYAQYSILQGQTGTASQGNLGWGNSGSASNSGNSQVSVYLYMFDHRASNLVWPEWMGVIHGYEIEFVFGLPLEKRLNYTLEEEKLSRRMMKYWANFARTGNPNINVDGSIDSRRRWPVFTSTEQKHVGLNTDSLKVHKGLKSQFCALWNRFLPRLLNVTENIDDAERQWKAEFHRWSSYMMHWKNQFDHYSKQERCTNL
The target of another series is Cholinesterase (Equus caballus, UniProt P81908). Description: Inhibition of equine serum BChE using BTC as substrate preincubated for 15 mins followed by substrate addition measured at 1 min intervals by Ellman method.
Cholinesterase, sequence (P81908 whole entry): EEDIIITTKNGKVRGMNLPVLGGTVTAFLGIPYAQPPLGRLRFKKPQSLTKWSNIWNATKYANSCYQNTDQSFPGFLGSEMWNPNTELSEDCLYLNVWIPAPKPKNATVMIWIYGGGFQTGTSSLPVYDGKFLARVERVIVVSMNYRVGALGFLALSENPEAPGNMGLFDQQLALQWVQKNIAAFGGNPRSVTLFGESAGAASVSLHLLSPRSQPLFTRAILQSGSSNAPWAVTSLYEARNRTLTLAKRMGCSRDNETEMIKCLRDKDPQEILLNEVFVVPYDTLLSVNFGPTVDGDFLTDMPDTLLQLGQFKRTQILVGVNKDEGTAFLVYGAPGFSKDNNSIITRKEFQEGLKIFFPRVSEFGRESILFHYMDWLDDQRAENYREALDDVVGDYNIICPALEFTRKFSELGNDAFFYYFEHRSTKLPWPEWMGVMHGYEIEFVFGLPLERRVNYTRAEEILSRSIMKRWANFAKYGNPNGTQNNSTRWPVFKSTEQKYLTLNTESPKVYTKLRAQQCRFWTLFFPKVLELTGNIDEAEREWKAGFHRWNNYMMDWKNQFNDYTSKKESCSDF
A short description of series [2]: Selectivtiy index, ratio of IC50 for equine serum BChE to IC50 for electric eel AChE.
A short description of series [3]: Cytotoxicity against rat PC12 cells at 1 uM after 48 hrs by MTT assay. In kind it is cell-based, PC-12. To be noted: read-out: INH. (Formazan colour is commonly taken as a measure of viable cells.)
Series [4] in a line: Cytotoxicity against rat PC12 cells at 10 uM after 48 hrs by MTT assay. To be noted: read-out: INH. It is filed as cell-based, PC-12.
Series [5] is described as follows: Cytotoxicity against human HepG2 cells at 1 uM after 48 hrs by MTT assay. To be noted: read-out: INH. It is filed as cell-based.
The nature of series [6]: Cytotoxicity against human HepG2 cells at 10 uM after 48 hrs by MTT assay. In kind it is cell-based. To be noted: read-out: INH.
Series [7] deals with Acetylcholinesterase (Electrophorus electricus) (UniProt O42275). Description: Potency index, ratio of IC50 for rivastigmine to IC50 for test compound for inhibition of electric eel AChE by Ellman method.
Acetylcholinesterase (Electrophorus electricus), sequence (O42275 24-633 limits assumed): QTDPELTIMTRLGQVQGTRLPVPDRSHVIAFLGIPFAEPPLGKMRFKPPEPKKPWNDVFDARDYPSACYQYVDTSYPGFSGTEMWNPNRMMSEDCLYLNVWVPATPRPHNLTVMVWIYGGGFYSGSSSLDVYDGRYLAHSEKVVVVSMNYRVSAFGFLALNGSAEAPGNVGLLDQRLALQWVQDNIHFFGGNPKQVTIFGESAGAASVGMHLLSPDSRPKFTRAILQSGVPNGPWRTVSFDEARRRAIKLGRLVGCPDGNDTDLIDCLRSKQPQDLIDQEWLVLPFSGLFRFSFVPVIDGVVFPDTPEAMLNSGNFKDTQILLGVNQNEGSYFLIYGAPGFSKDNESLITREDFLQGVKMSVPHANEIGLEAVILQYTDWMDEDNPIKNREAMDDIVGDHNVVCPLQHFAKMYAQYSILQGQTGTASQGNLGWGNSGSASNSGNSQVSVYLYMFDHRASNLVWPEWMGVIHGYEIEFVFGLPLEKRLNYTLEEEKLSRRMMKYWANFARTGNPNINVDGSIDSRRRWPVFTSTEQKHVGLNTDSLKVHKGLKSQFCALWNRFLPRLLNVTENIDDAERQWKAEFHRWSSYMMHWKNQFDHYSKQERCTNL
Series [8] concerns the target Cholinesterase (Equus caballus) (UniProt P81908). The experiment in a line: Mixed-type inhibition of equine serum BChE using BTC as substrate assessed as hydrolysis of BTC preincubated with protein for 15 mins followed by substrate addition by Lineweaver-Burk plot analysis.
Series [9] deals with T1, Acetylcholinesterase. Description: Mixed-type inhibition of electric eel AChE using ATC as substrate assessed as hydrolysis of ATC preincubated with protein for 15 mins followed by substrate addition by Lineweaver-Burk plot analysis.

What is called IC50 is the concentration that gives 50% inhibition. Lower therefore signals inhibition by little substance. In general, Ki refers to the dissociation constant of the complex between target and ligand, obtained from inhibition or displacement.

Cholinesterase (Equus caballus), sequence (P81908 whole entry): as the sequence (P81908 whole entry) above

`O=c1cc(-c2ccc(N3CCCC3)cc2)oc2cc(OCCCCCCCCN3CCCC3)ccc12`: the IC50 on Acetylcholinesterase [1] was found to be 1380 nM; against Cholinesterase, 4100 nM. Moreover, the Ratio IC50 in [2] amounted to 2.97. Besides, the cytotoxicity at 48 h, 1 µM amounted to 0.29% in [3] and 5.74% in series [5]. For the same compound, the figures for the cytotoxicity at 48 h, 10 µM in series [4] and in series [6] were -9.56% and 19%, respectively.
Take `O=c1cc(-c2ccc(Br)cc2)oc2cc(OCCCCCCCCN3CCCC3)ccc12`: the IC50 at Acetylcholinesterase [1] was 2150 nM; against Cholinesterase, 10200 nM. The Ratio IC50 in series [2] amounted to 4.77. In addition, the cytotoxicity at 48 h, 1 µM in series [3] amounted to 2.5%; in series [5], 13.3%. The cytotoxicity at 48 h, 10 µM was -12.5% in series [4] and 10.8% in series [6].
Regarding `COc1ccc(-c2cc(=O)c3ccc(OCCCCCCCCN4CCCC4)cc3o2)cc1OC`, the values for the IC50 on Acetylcholinesterase [1] and on Cholinesterase were 830 nM and 3430 nM, respectively. For the same compound, the Ratio IC50 in series [2] worked out at 4.13. Also, the cytotoxicity at 48 h, 1 µM in series [3] worked out at 7.29%; in series [5] it was 13.5%. In addition, the cytotoxicity at 48 h, 10 µM is -2.94% in series [4] and 76% in series [6].
For `O=c1cc(-c2ccc(Cl)cc2)oc2cc(OCCCCCCCCN3CCCC3)ccc12`, the 50% inhibitory concentration (IC50) amounted to 1120 nM on Acetylcholinesterase [1] and 3460 nM against Cholinesterase. Also, the Ratio IC50 in [2] amounted to 3.09. The cytotoxicity at 48 h, 1 µM amounted to 6.27% in [3] and 6.39% in series [5]. Moreover, the cytotoxicity at 48 h, 10 µM is -1.7% in series [4] and 25.7% in [6].
As for `COc1ccc(-c2cc(=O)c3ccc(OCCCCCCCCN4CCCC4)cc3o2)cc1`, the IC50 against Acetylcholinesterase [1] was found to be 1700 nM; on Cholinesterase, 5420 nM. In addition, the Ratio IC50 in series [2] was found to be 3.19. For the same compound, the figures for the cytotoxicity at 48 h, 1 µM in series [3] and in series [5] were -0.15% and 6.69%, respectively. In addition, the cytotoxicity at 48 h, 10 µM is -6.72% in series [4] and 21.5% in series [6].
As to `O=c1cc(-c2ccccc2)oc2cc(OCCCCCCCCN3CCCC3)ccc12`, the values for the IC50 against Acetylcholinesterase [1] and against Cholinesterase were 1090 nM and 2240 nM, respectively. Also, the Ratio IC50 in series [2] is 2.05. Moreover, the cytotoxicity at 48 h, 1 µM in [3] is -2.83%; in [5] it was 11.3%. For the same compound, the cytotoxicity at 48 h, 10 µM in [4] is 1.37%; in series [6] it was 8.97%.
In the case of `Cc1ccc(-c2cc(=O)c3ccc(OCCCCCCCCN4CCCC4)cc3o2)cc1`, the values for the 50% inhibitory concentration (IC50) at Acetylcholinesterase [1] and against Cholinesterase were 1250 nM and 1920 nM, respectively. Further, the Ratio IC50 in [2] worked out at 1.54. Moreover, the cytotoxicity at 48 h, 1 µM in series [3] was -0.55%; in series [5], 9.17%. Further, the figures for the cytotoxicity at 48 h, 10 µM in [4] and in series [6] were -0.03% and 77.1%, respectively.
With `COc1cccc(-c2cc(=O)c3ccc(OCCCCCCCCN4CCCC4)cc3o2)c1`, the IC50 against Acetylcholinesterase [1] stood at 670 nM; against Cholinesterase, 2290 nM. Also, the Ratio IC50 in [2] came out at 3.42. In addition, the cytotoxicity at 48 h, 1 µM is 3.53% in series [3] and 16.2% in series [5]. Moreover, the cytotoxicity at 48 h, 10 µM in series [4] was -18.2%; in [6], 23.7%.
As to `O=c1cc(-c2ccc(O)cc2)oc2cc(OCCCCCCCCN3CCCC3)ccc12`, the IC50 against Acetylcholinesterase [1] is 1210 nM; against Cholinesterase, 4580 nM. In addition, the Ratio IC50 in series [2] came to 3.79. The values for the cytotoxicity at 48 h, 1 µM in series [3] and in series [5] were 0.7% and 18.5%, respectively. The cytotoxicity at 48 h, 10 µM was 7.42% in series [4] and 21.4% in series [6].
For `O=c1cc(-c2ccccc2OCc2ccccc2)oc2cc(OCCCCCCCCN3CCCC3)ccc12`, the values for the IC50 against Acetylcholinesterase [1] and against Cholinesterase were 2010 nM and 5260 nM, respectively. In addition, in series [2], the Ratio IC50 is 2.62. In addition, the cytotoxicity at 48 h, 1 µM was found to be 0.47% in [3] and 19.7% in series [5]. Moreover, the figures for the cytotoxicity at 48 h, 10 µM in [4] and in series [6] were 22.9% and 34.1%, respectively.
With `O=c1cc(-c2cccc(O)c2)oc2cc(OCCCCCCCCN3CCCC3)ccc12`, the figures for the IC50 against Acetylcholinesterase [1] and against Cholinesterase were 1120 nM and 4920 nM, respectively. In series [2], the Ratio IC50 stood at 4.39. Moreover, the cytotoxicity at 48 h, 1 µM in series [3] was -4.43%; in [5], 19%. The figures for the cytotoxicity at 48 h, 10 µM in [4] and in [6] were -6.56% and 43.9%, respectively.
As for `COc1ccccc1-c1cc(=O)c2ccc(OCCCCCCCCN3CCCC3)cc2o1`, the IC50 against Acetylcholinesterase [1] came to 640 nM; on Cholinesterase, 760 nM. Moreover, the Ratio IC50 was 1.19 in series [2] and 10 in [7]. For the same compound, the values for the cytotoxicity at 48 h, 1 µM in [3] and in series [5] were 3.08% and 5.9%, respectively. The cytotoxicity at 48 h, 10 µM in series [4] worked out at 3.4%; in series [6], 24.3%.
Regarding `O=c1cc(-c2cccc3ccccc23)oc2cc(OCCCCCCCCN3CCCC3)ccc12`, the inhibition result in series [8] is “Active”. For the same compound, the Ki on Acetylcholinesterase [9] was 206 nM. For the same compound, the IC50 against Acetylcholinesterase [1] was 720 nM; on Cholinesterase it was 420 nM. Moreover, the Ratio IC50 in series [2] came out at 0.58. The cytotoxicity at 48 h, 1 µM in series [3] worked out at 3%; in series [5], 4.42%. In addition, the cytotoxicity at 48 h, 10 µM in series [4] came to 9.01%; in series [6], 18.9%.
For the compound `O=c1cc(-c2ccc(-c3ccccc3)cc2)oc2cc(OCCCCCCCCN3CCCC3)ccc12`, the IC50 is 4800 nM on Acetylcholinesterase [1] and > 25000 nM against Cholinesterase. Besides, the Ratio IC50 in series [2] is > 5.21. Also, the figures for the cytotoxicity at 48 h, 1 µM in series [3] and in [5] were 0.46% and 13.9%, respectively. In addition, the results for the cytotoxicity at 48 h, 10 µM in series [4] and in series [6] were 68.9% and 71.9%, respectively.
Turning to `Nc1c2c(nc3ccccc13)CCCC2` [TACRINE], the cytotoxicity at 48 h, 1 µM in series [3] stood at 4.62%. In addition, the cytotoxicity at 48 h, 10 µM in series [4] was determined as 10.2%.
Consider `O=c1cc(-c2cccc(OCc3ccccc3)c2)oc2cc(OCCCCCCCCN3CCCC3)ccc12`, for which the IC50 on Acetylcholinesterase [1] was 1580 nM; on Cholinesterase, > 25000 nM. The Ratio IC50 in [2] is > 15.8. Also, the results for the cytotoxicity at 48 h, 1 µM in series [3] and in series [5] were 0.79% and 6.63%, respectively. The cytotoxicity at 48 h, 10 µM in [4] is -2.53%; in series [6], 30.6%.
For the compound `O=c1cc(-c2ccc(OCc3ccccc3)cc2)oc2cc(OCCCCCCCCN3CCCC3)ccc12`, the values for the IC50 against Acetylcholinesterase [1] and at Cholinesterase were 1900 nM and > 25000 nM, respectively. In addition, the Ratio IC50 in series [2] is > 13.2. Also, the cytotoxicity at 48 h, 1 µM in series [3] was -2.83%; in series [5], 10.4%. Also, the cytotoxicity at 48 h, 10 µM in series [4] was 1.37%; in series [6] it was 54.3%.
Take `O=c1cc(-c2ccccc2O)oc2cc(OCCCCCCCCN3CCCC3)ccc12`: the IC50 on Acetylcholinesterase [1] came out at 3070 nM; against Cholinesterase, 1260 nM. In addition, the Ratio IC50 in series [2] was 0.41. Also, the cytotoxicity at 48 h, 1 µM was -7.71% in series [3] and 5.92% in series [5]. For the same compound, the cytotoxicity at 48 h, 10 µM in series [4] is 6.61%; in series [6], 60.6%.
Regarding `COc1cc(-c2cc(=O)c3ccc(OCCCCCCCCN4CCCC4)cc3o2)cc(OC)c1OC`, the IC50 against Acetylcholinesterase [1] was 1080 nM; against Cholinesterase, 2200 nM. For the same compound, the Ratio IC50 in series [2] stood at 2.04. Besides, the cytotoxicity at 48 h, 1 µM in series [3] is -4.47%; in [5] it was 16.3%. Moreover, the cytotoxicity at 48 h, 10 µM in series [4] was -13.8%; in series [6] it was 41.4%.
